Laboratory results taken from US6822146B2, “Sulfonylurea-tolerant sunflower line M7” (priority 2000, dated 2004).
Where two headings read alike, the source gives them in different places.

Tests used:
H89A × M4M11 = assay type: in vivo, sunflower; conditions: variety G
Procedure, shortened: (§1)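 Maintainer mutant lines M4M12, M4M11 and M4M7 (fourth self-pollinated generation) chemically sterilized with gibberellic acid at bud "star" flower stage, then used as female parents so herbicide-resistance source comes from female side. Phytotoxicity rated as % crop injury; 0% means no injury.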

H89A × M4M12 = assay type: in vivo, sunflower; conditions: variety F
H89A × M4M7 = assay type: in vivo, sunflower; conditions: variety H
[1] = tested on: Hybrid control: H89A × RHA274; assay type: in vivo, sunflower; conditions: variety A
Procedure, shortened: as §1

[2] = tested on: Inbred line control: H89A; assay type: in vivo, sunflower; conditions: variety B
Procedure, shortened: as §1

GA-M4M12 × RHA274 = experiment: Test A field trial, phytotoxicity, variety C; assay type: in vivo, sunflower
Text: (§2) To generate the hybrids C, D and E, the fourth generation self-pollinated maintainer mutant lines M4M12, M4M11 and M4M7 were chemically sterilized by applying at the bud “star” flower stage a small amount of gibberellic acid solution to sterilize the pollen according to the general method described in Sunflower Science Technology, J. F. Carter ed. (Number 19 in the series “Agronomy”) pp. 339-386. This treatment enables maintainer plants to behave as CMS inbred lines and allows the production of heterozygous resistant hybrids, with the herbicide resistant source coming from the female side. Such crosses allowed evaluating the sexual effect of the mutation source when introduced on the female side of a cross as described in crosses C, D and E versus the male side of a cross as described in crosses F, G and H. Labels I, J and K identify third generation CMS mutant lines crossed with fourth generation maintainer lines to maintain the highly heritable mutant trait in a male sterile homozygous resistant environment. One skilled in sunflower breeding art understands the meaning of such crosses.
(§3) A rating of 0% phytotoxicity means no crop injury.

GA-M4M11 × RHA274 = experiment: Test A field trial, phytotoxicity, variety D; assay type: in vivo, sunflower
Text: as §2, §3

GA-M4M7 × RHA274 = experiment: Test A field trial, phytotoxicity, variety E; assay type: in vivo, sunflower
Text: as §2, §3

BC3-M4M12 = experiment: Test A field trial, phytotoxicity, variety I; assay type: in vivo, sunflower
Text: as §2, §3

BC3-M4M11 = experiment: Test A field trial, phytotoxicity, variety J; assay type: in vivo, sunflower
Text: as §2, §3

BC3-M4M7 = experiment: Test A field trial, phytotoxicity, variety K; assay type: in vivo, sunflower
Text: as §2, §3

Orobanche cumana = experiment: Test E control of Orobanche cumana in resistant sunflower hybrid; assay type: in vivo; conditions: for relative efficacy in controlling Orobanche: Test E rates, metsulfuron-methyl compared with tribenuron-methyl
Method: The effect of the various treatments was evaluated 35 days after sowing. The sunflower roots were cleaned by washing in water, and the presence of Orobanche nodules was determined visually and by weighing root wet mass in comparison to check plants free of Orobanche infestation. […] The nodules caused by Orobanche increased root weight, and a correlation (r=0.7) was found between visual scores and weight measurements. Thus the weighing technique could be used to corroborate visual efficacy scorings. Orobanche emergence was also scored but found to be less useful to evaluate treatment efficiency at the evaluation timing of this test.
Based on the results from Test D, a modified protocol was developed to include three timings of post-emergence treatment. The hybrid BC4-M5M12 (female parent)×PHA155 restorer line (male parent) described in Test C was used in this test. Various herbicide programs were tested using three replications. […] Seed coatings of these formulated herbicides were applied to 6 kg of seeds in such amount that considering the distribution of the coated seeds in each pot, the herbicide active ingredient (a.i.) application rates per hectare were as indicated.
The treatments were applied similar to the methods described for Test D. Pre-emergence applications were broadcast only, not soil incorporated. For pre-emergence application, the pots were sprayed using the high rates of the herbicides two days after sowing the sunflower seeds. Post-emergence treatments were applied at the 4-6 leaf stage of sunflower (corresponding to early stage of Orobanche attachment; identified as “T1”), the 6-8 leaf stage of sunflower (corresponding to the mid stage of Orobanche attachment; nodules <5 mm diameter; identified as “T2”) and 8-12 leaf stage of sunflower (corresponding to late stage of Orobanche attachment; identified as “T3”). The mid-stage applications included the high as well as low application rates of each herbicide.
For comparison were also included in this test other acetolactate synthase-inhibiting herbicides reported in the literature as giving good weed control of Orobanche (L. García-Torres et al., Weed Research 1994, 34, 395-402; L. García-Torres et al., Weed Technology 1995, 9, 819-824; J. Hershenhorn et al., Weed Technology 1998, 12, 108-114).

[3] = tested on: H89A × RHA274 (sulfonylurea-susceptible hybrid); experiment: Test G control of volunteer sunflower, H89A × RHA274; assay type: in vivo; conditions: rated 4 weeks after application, scale 0-100
BC2-M3M11 = experiment: Test G control of volunteer sunflower, BC2-M3M11; assay type: in vivo; conditions: rated 4 weeks after application, scale 0-100
BC2-M3M12 = experiment: Test G control of volunteer sunflower, BC2-M3M12; assay type: in vivo; conditions: rated 4 weeks after application, scale 0-100
[4] = tested on: mutants originating from M11 and M12; conditions: tribenuron-methyl up to 60 g a.i./ha; others at Test G rates
Text: This test involved sulfonylurea-resistant sunflower progeny BC2-M3M11 and BC2-M3M12, derived from M11 and M12, respectively. Also, a sulfonylurea-susceptible hybrid, H89A×RHA274, was included for comparison. Plants were sprayed with formulated herbicides at the 4-leaf stage. The efficacy of the treatments on the sunflowers was visually rated 4 weeks after application, using a scale where 0 means no control of the sunflowers, 85 means sufficient efficacy level to stop plants from flowering and propagating, and 100 means a complete destruction of the mutants.
Weed control in sugar beet requires 2-3 herbicide applications per season to efficiently control weeds in this slow growing crop.

[5] = 6 g a.i./ha post-emergence, without Citowet

COC(=O)c1ccccc1S(=O)(=O)NC(=O)Nc1nc(C)nc(OC)n1 [Metsulfuron-methyl, metsulfuron-methyl]
Maximum Phytotoxicity (H89A × M4M11; [5]): 6% | Maximum Phytotoxicity (H89A × M4M12; [5]): 4% | Maximum Phytotoxicity (H89A × M4M7; [5]): 4% | Maximum Phytotoxicity [1, 5]: 100% | Maximum Phytotoxicity [2, 5]: 100% | Maximum Phytotoxicity (GA-M4M12 × RHA274; in vivo): 8% | Maximum Phytotoxicity (GA-M4M11 × RHA274; in vivo): 7% | Maximum Phytotoxicity (GA-M4M7 × RHA274; in vivo): 0% | Maximum Phytotoxicity (BC3-M4M12; in vivo): 7% | Maximum Phytotoxicity (BC3-M4M11; in vivo): 11% | Maximum Phytotoxicity (BC3-M4M7; in vivo): 8% | relative efficacy in controlling Orobanche (Orobanche cumana): more efficacious in controlling Orobanche | Control (Orobanche cumana; post-emergence 3 + 3 g a.i./ha at T1 + T3): 96% | Control (Orobanche cumana; post-emergence 3 + 3 g a.i./ha at T1 + T3, listed as metsulfuron-methyl): excellent level of Orobanche control | Control (Orobanche cumana; post-emergence 6 g a.i./ha at T2): 97% | Control (Orobanche cumana; pre-emergence 3 + post-emergence 3 g a.i./ha at T2): 87% | Control (Orobanche cumana; pre-emergence 6 g a.i./ha (r19)): 30% | Efficacy on H89A × RHA274 ([3]; 4 g a.i./ha): 100 | Efficacy on BC2-M3M11 (BC2-M3M11; 4 g a.i./ha): 8 | Efficacy on BC2-M3M12 (BC2-M3M12; 4 g a.i./ha): 18 | resistance/tolerance of the mutants [4]: to a lesser extent than with tribenuron-methyl

COC(=O)c1cccc(C)c1S(=O)(=O)NC(=O)Nc1nc(OCC(F)(F)F)nc(N(C)C)n1 [Triflusulfuron-methyl, triflusulfuron-methyl]
Maximum Phytotoxicity (H89A × M4M11; 20 g a.i./ha post-emergence): 15% | Maximum Phytotoxicity (H89A × M4M11; 40 g a.i./ha post-emergence): 36% | Maximum Phytotoxicity (H89A × M4M12; 20 g a.i./ha post-emergence): 16% | Maximum Phytotoxicity (H89A × M4M12; 40 g a.i./ha post-emergence): 33% | Maximum Phytotoxicity (H89A × M4M7; 20 g a.i./ha post-emergence): 10% | Maximum Phytotoxicity (H89A × M4M7; 40 g a.i./ha post-emergence): 33% | Maximum Phytotoxicity ([1]; 20 g a.i./ha post-emergence): 100% | Maximum Phytotoxicity ([1]; 40 g a.i./ha post-emergence): 100% | Maximum Phytotoxicity ([2]; 20 g a.i./ha post-emergence): 100% | Maximum Phytotoxicity ([2]; 40 g a.i./ha post-emergence): 100% | Maximum Phytotoxicity (GA-M4M12 × RHA274; variety C, 20 g a.i./ha post-emergence): 19% | Maximum Phytotoxicity (GA-M4M12 × RHA274; variety C, 40 g a.i./ha post-emergence): 38% | Maximum Phytotoxicity (GA-M4M11 × RHA274; variety D, 20 g a.i./ha post-emergence): 19% | Maximum Phytotoxicity (GA-M4M11 × RHA274; variety D, 40 g a.i./ha post-emergence): 40% | Maximum Phytotoxicity (GA-M4M7 × RHA274; variety E, 20 g a.i./ha post-emergence): 20% | Maximum Phytotoxicity (GA-M4M7 × RHA274; variety E, 40 g a.i./ha post-emergence): 38% | Maximum Phytotoxicity (BC3-M4M12; variety I, 20 g a.i./ha post-emergence): 4% | Maximum Phytotoxicity (BC3-M4M12; variety I, 40 g a.i./ha post-emergence): 13% | Maximum Phytotoxicity (BC3-M4M11; variety J, 20 g a.i./ha post-emergence): 6% | Maximum Phytotoxicity (BC3-M4M11; variety J, 40 g a.i./ha post-emergence): 14% | Maximum Phytotoxicity (BC3-M4M7; variety K, 20 g a.i./ha post-emergence): 8% | Maximum Phytotoxicity (BC3-M4M7; variety K, 40 g a.i./ha post-emergence): 10% | relative efficacy in controlling Orobanche (Orobanche cumana): less efficacious in controlling Orobanche | Control (Orobanche cumana; post-emergence 18.75 g a.i./ha at T2): 75% | Efficacy on H89A × RHA274 ([3]; 15 g a.i./ha): 82 | Efficacy on BC2-M3M11 (BC2-M3M11; 15 g a.i./ha): 13 | Efficacy on BC2-M3M12 (BC2-M3M12; 15 g a.i./ha): 8 | resistance/tolerance of the mutants [4]: to a lesser extent than with tribenuron-methyl

COC(=O)c1ccccc1S(=O)(=O)NC(=O)N(C)c1nc(C)nc(OC)n1 [Tribenuron-methyl, tribenuron-methyl]
Maximum Phytotoxicity (H89A × M4M11; 22.5 g a.i./ha post-emergence): 3% | Maximum Phytotoxicity (H89A × M4M12; 22.5 g a.i./ha post-emergence): 0% | Maximum Phytotoxicity (H89A × M4M7; 22.5 g a.i./ha post-emergence): 0% | Maximum Phytotoxicity ([1]; 22.5 g a.i./ha post-emergence): 100% | Maximum Phytotoxicity ([2]; 22.5 g a.i./ha post-emergence): 100% | Maximum Phytotoxicity (GA-M4M12 × RHA274; in vivo): 0% | Maximum Phytotoxicity (GA-M4M11 × RHA274; in vivo): 6% | Maximum Phytotoxicity (GA-M4M7 × RHA274; in vivo): 2% | Maximum Phytotoxicity (BC3-M4M12; in vivo): 4% | Maximum Phytotoxicity (BC3-M4M11; in vivo): 0% | Maximum Phytotoxicity (BC3-M4M7; in vivo): 4% | Control (Orobanche cumana; 22.5 g a.i./ha printed in pre-emergence column (first such row, r7), host BC4-M5M12 × PHA155): 70% | Control (Orobanche cumana; post-emergence 11.25 + 11.25 g a.i./ha at T1 + T3): 90% | Control (Orobanche cumana; post-emergence 22.5 g a.i./ha at T2): 75% | Control (Orobanche cumana; pre-emergence 11.25 + post-emergence 11.25 g a.i./ha at T2): 78% | Control (Orobanche cumana; pre-emergence 22.5 g a.i./ha (r18)): 0% | Control (Orobanche cumana; seed coating 11.25 + post-emergence 11.25 g a.i./ha at T2): 88% | Efficacy on H89A × RHA274 ([3]; 10 g a.i./ha, 4-leaf stage): 100 | Efficacy on H89A × RHA274 ([3]; 20 g a.i./ha): 100 | Efficacy on H89A × RHA274 ([3]; 40 g a.i./ha): 100 | Efficacy on H89A × RHA274 ([3]; 60 g a.i./ha): 100 | Efficacy on BC2-M3M11 (BC2-M3M11; 10 g a.i./ha): 0 | Efficacy on BC2-M3M11 (BC2-M3M11; 20 g a.i./ha): 0 | Efficacy on BC2-M3M11 (BC2-M3M11; 40 g a.i./ha): 3 | Efficacy on BC2-M3M11 (BC2-M3M11; 60 g a.i./ha): 10 | Efficacy on BC2-M3M12 (BC2-M3M12; 10 g a.i./ha): 0 | Efficacy on BC2-M3M12 (BC2-M3M12; 20 g a.i./ha): 0 | Efficacy on BC2-M3M12 (BC2-M3M12; 40 g a.i./ha): 0 | Efficacy on BC2-M3M12 (BC2-M3M12; 60 g a.i./ha): 14 | resistance/tolerance of the mutants [4]: excellent to very good level of resistance
